Tests used:
HepG2 cell = test: Cytotoxicity test (CCK-8), hepatotoxicity; format: cell-based; details: Homo sapiens, 72 h
Method: HepG-2 and SH—SY5Y cells were placed in 10 cm dish and cultured at 37° C., 5% CO2 in a cell incubator. Trypsin was used to digest and resuspend cells and cells were counted. The cells were transferred to 96-well plate with 8000 cells in a well (100 μl/well). A serial of gradient concentration dilutions of compound with 2-fold dilution were prepared, and the system was 100 μL/well. The supernatant of cell culture system in the 96-well plate was removed on the first day, and fresh-prepared drug concentration system was add into culture plate wells (duplicate wells were set). The cells were cultured at 37° C., 5% CO2 in a cell incubator for 72 h. After the cell culture was completed, the supernatant of cell culture system was removed from 96-well plate, 100 μl of detection solution containing 10% CCK-8 medium was added into each well, and the cells were cultured at 37° C., 5% CO2 in a cell incubator for 1 h. Microplate reader was used to measure the absorbance at 450 nm. Data was processed to calculate cytotoxicity, and IC50 was calculated by GraphPad Prism. […]
A (Dosing): the absorbance of wells containing cells, CCK-8 solution and drug solution.
A (control): the absorbance of wells containing medium and CCK-8 solution and without cells.
A (0 Dosing): the absorbance of wells containing cells and CCK-8 solution but without drug solution.

C57BL/6 mice, ICS model = test: mice ICS model (fibromyalgia), mechanical allodynia test; format: in vivo, mouse; details: 10 mg/kg oral
Method: After completely dissolved, the duloxetine was administered orally. The volume of administration was 5 ml/kg.
10 mg/kg compound Ic-1:17 mg of compound Ic-1 was weighed, dissolved in saline and diluted to 8.5 mL. After completely dissolved, the compound Ic-1 was administered orally. The volume of administration was 5 ml/kg.
Male C57BL/6 mice weighed 18-22 g were selected at the beginning of experiment. Each cage had 4 mice which were allowed to feed and drink water freely. Each experimental group had 12 mice, and the experimental mice were labeled by tail labeling method.
Day 0: At 4:30 pm, the mice were put in a plexiglass box with stainless steel mesh, and then the plexiglass box was put in cold environment (4±2° C.) overnight. The mice were allowed to feed freely and drink, and agar was used to replace water.
Day 1: At 10:00 am, the mice were delivered to room temperature (24±2° C.) environment for 30 min, and then the mice were delivered to cold environment for 30 min. The above steps were repeated until 4:[…], and the mice were put in cold environment overnight.
Day 2: the operation on day 1 was repeated.
Day 3: the mice were taken out from cold environment at 10:00 am.
The compounds were administered orally according to the schedule of experiment, and the dosage was 10 mg/kg.
On the fourth day after modeling, the pre-administration mechanical allodynia test was performed on the animals. Animals with PWT value greater than 0.5 g were excluded and were not used for experiments. On the fifth day after modeling, the animals were tested for mechanical allodynia at 0.5 h, 1 h, and 2 h after the administration of compounds. […]
During the test, rapid withdrawal of animal claw was recorded as pain response. When the test fiber was removed from animal skin, the withdrawal of animal claw was also recorded as pain response. If animal moved, the pain response was not recorded, and the test was repeated. […] The maximum strength of tested fiber was 4.17 (1.4 g). • The test results were recorded in Table 4 below, wherein pain response was recorded as X and no pain response was recorded as O. […]

CNCC[C@H](Oc1cccc2ccccc12)c1cccs1 [Duloxetine (S configuration), Duloxetine]
IC50 (HepG2 cell): 33 µM
PWT (g) Mean ± SD (C57BL/6 mice, ICS model; 0.5 h after administration): 0.416 ± 0.140 g
PWT (g) Mean ± SD (C57BL/6 mice, ICS model; 1 h after administration): 0.648 ± 0.155 g
PWT (g) Mean ± SD (C57BL/6 mice, ICS model; 2 h after administration): 0.530 ± 0.235 g
